# Data as given in US20170209447A1, “Use of PNP Inhibitor to Treat Relapse of Malignancy after Hematopoietic Stem Cell Transplant” (Nitor Therapeutics, priority 2014, published 2017).
# Tests used:
# B16 tumors = test: PNPi as anticancer agent in mouse melanoma model; format: in vivo, C57BL/6 mice; settings: cyclophosphamide 100 mg/kg IP single dose; FIG. 6
# Experimental: Evaluation of PNPi as Anticancer Agent in Mouse Melanoma Model.
# Treatment with the NTR001 was initiated on day 6 after injection of tumor cells. Tumor volume and survival were recorded every 3-4 days.
# human TLR2 = target: T1, human TLR2 (Homo sapiens, UniProt O60603); test: TLR ligand screening: NF-κB SEAP reporter in HEK293 cells expressing TLR2; format: cell-based; settings: FIG. 2
# T1 construct: expressed in transfected cells; host or cells: HEK293
# Experimental: (§1) Toll-Like Receptor (TLR) Ligand Screening: In-vitro Activity of the PNPi, Guanosine and Inosine on Seven Different Human TLRs (TLR2, 3, 4, 5, 7, 8 and 9) as a Potential Agonist.
# (§2) Method: TLR stimulation is tested by assessing NF-KB activation in HEK293 cells expressing a given TLR. The Secreted Embryonic Alkaline Phosphatase (SEAP) reporter is under the control of a promoter inducible by the transcription factor NF-κB.
# (§3) This reporter gene allows the monitoring of signaling through the TLR, based on the activation of NF-κB. The compounds are evaluated at one concentration and compared to control ligands. This step is performed in triplicate.
# human TLR4 = target: T2, human TLR4 (Homo sapiens, UniProt O00206); test: TLR ligand screening: NF-κB SEAP reporter in HEK293 cells expressing TLR4; format: cell-based; settings: FIG. 2
# T2 construct: expressed in transfected cells; host or cells: HEK293
# Experimental: as §1, §2, §3
# tetanus toxoid vaccine = test: PNPi as adjuvant in tetanus toxoid vaccine efficacy study (tetanus toxoid mouse model); format: in vivo, mice; settings: compared to vehicle treated group
# Experimental: This Example Evaluates PNPi as an Adjuvant in Tetanus Toxoid Vaccine Efficacy Study.
# Method: Tetanus toxoid (TT) was used to vaccinate mice thrice, two weeks apart. Mice were treated by oral administration of compounds NTR001 and NTR002 and serum was collected at various time points for antibody titer and interferon-g analysis. Mice in Groups 2-6 (Table 2) are vaccinated subcutaneously with 0.1 ml tetanus toxoid vaccine on DAYS 0, 14 and 28. Mice in Group 1 (Table 1) received no vaccine. Antibody titers for DAYS 38 are determined by ELISA using tetanus toxoid coated microtiter plates and anti-mouse conjugate. Sera from DAY 30 are assayed by ELISA for interferon-g.
# [1] = test system: L. monocytogenes (ATCC Strain35152, hemolytic substrain); settings: 30 mg/kg PO or IP, or 2 mg/kg drinking water; 1×10^6 CFU i.v.; FIGS. 7 and 9
# [2] = Guanosine 100 uM in combination with NTR001 (10 uM) and/or Inosine (100 uM)
# [3] = one concentration: Guanosine 100 uM, NTR001 10 uM, Inosine 100 uM, HEK293, triplicate
# T2 sequence (O00206 24-839): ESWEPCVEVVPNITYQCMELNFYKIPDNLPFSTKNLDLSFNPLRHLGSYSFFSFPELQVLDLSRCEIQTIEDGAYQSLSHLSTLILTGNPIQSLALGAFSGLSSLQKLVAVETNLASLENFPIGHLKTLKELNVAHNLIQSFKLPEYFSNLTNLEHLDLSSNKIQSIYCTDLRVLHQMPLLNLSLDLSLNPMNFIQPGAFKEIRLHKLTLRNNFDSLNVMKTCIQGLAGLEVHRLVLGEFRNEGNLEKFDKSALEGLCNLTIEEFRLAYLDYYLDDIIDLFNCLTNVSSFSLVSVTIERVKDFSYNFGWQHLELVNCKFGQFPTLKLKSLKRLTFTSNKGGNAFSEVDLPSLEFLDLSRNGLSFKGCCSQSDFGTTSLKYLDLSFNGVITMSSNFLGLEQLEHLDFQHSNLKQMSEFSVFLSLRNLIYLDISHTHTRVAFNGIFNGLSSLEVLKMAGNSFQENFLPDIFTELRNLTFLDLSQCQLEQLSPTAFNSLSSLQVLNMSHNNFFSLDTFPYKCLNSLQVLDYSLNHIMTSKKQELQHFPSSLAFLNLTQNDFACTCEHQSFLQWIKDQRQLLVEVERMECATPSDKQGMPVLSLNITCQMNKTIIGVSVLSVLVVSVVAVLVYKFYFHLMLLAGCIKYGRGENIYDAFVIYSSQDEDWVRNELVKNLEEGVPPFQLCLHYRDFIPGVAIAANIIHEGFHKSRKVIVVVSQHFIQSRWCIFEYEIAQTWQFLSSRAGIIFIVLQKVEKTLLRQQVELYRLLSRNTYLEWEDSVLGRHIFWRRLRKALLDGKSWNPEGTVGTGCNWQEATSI
# T2 sequence (Q9Y6Y9 17-160 partner limits assumed): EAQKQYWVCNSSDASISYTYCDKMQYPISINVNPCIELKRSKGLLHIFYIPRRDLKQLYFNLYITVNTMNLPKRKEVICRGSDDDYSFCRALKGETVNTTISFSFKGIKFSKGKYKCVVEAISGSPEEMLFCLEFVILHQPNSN
# T1 sequence (O60603 21-784): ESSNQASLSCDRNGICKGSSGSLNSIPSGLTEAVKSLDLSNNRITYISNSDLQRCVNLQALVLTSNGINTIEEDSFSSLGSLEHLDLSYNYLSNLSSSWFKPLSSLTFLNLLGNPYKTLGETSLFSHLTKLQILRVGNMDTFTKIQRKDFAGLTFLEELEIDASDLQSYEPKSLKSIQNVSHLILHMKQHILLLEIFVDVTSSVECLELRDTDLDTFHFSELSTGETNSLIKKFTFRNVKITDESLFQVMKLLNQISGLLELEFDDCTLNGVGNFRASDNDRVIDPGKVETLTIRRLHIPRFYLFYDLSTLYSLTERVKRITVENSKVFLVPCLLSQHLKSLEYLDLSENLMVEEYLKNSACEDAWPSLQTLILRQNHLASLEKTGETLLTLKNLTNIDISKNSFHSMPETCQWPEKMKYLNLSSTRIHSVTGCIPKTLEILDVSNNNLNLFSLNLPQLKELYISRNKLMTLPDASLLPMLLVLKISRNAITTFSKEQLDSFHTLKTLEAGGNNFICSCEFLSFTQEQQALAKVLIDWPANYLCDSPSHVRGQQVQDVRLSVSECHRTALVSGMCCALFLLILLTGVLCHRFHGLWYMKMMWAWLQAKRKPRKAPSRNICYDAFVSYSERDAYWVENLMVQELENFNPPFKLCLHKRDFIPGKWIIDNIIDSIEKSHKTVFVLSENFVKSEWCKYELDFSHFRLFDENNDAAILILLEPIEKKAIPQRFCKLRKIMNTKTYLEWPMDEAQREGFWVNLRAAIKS
compound,measurement,setting,value
"O=P1(N(CCCl)CCCl)NCCCO1 (centres unmarked) [Cyclcophosphamide, cyclophosphamide, reference compound]",survival,B16 tumors,30%
"Nc1nc2c(ncn2[C@@H]2O[C@H](CO)[C@@H](O)[C@H]2O)c(=O)[nH]1 [Guanosine, guanosine]","stimulatory effect on human TLR2 (NF-κB activation), combination",human TLR2; [2],significant stimulatory effect
same,stimulatory effect on human TLR2 (NF-κB activation),human TLR2; [3],significant stimulatory effect
same,"stimulatory effect on human TLR4 (NF-κB activation), combination",human TLR4; [2],significant stimulatory effect
same,stimulatory effect on human TLR4 (NF-κB activation),human TLR4; [3],significant stimulatory effect
"O=c1[nH]cnc2c(CN3C[C@H](CO)[C@@H](O)C3)c[nH]c12 [NTR002, 1,5-dihydro-7-[[(3R,4R)-3-hydroxy-4-(hydroxymethyl)pyrrolidin-1-yl]methyl]-4H-pyrrolo[3,2-d]pyrimidin-4-one]",serum interferon-g levels,"tetanus toxoid vaccine; day 30, ELISA, high dose group 60 mg/kg p.o., FIG. 4",elevated
same,serum tetanus toxoid antibody titers,"tetanus toxoid vaccine; day 38, ELISA, p.o. 30 mg/kg (6 days of treatment) and 60 mg/kg (3 days of treatment), FIG. 3",significantly elevated
same,weight loss,[1],significant decrease
